Test results taken from US7378404B2, “8β-hydrocarbyl-substituted estratrienes for use as selective estrogens” (priority 2000, dated 2008).

Assays:
[1] = system: estrogen receptor of rat prostates; test: Competitive binding with 3H-estradiol to estrogen receptor preparation of rat prostate cytosol; conditions: for RBA Rat Prostate: Table 2; for binding affinity to estrogen receptor of rat prostates compared with estrogen receptor of rat uteri: rat prostate ER versus rat uterus ER; for Rat prost. ER (RBA): Table 1, estradiol = 100
[2] = system: 5HT2a-receptor and serotonin transporter; test: Expression of 5HT2a-receptor and serotonin transporter in ERβ-rich brain areas after one-time administration in rats; format: in vivo; conditions: rat brain
Procedure: Compared to the effect on the serotonin receptor and transporter expression, the effect on the LH-secretion is measured. […] The density of serotonin receptors and transporters is determined in brain sections using radioactive ligands, and the corresponding mRNA is determined using in situ hybridization. The method is described in the literature: G. Fink & B. E. H. Sumner 1996 Nature 383: 306; B. E. H. Sumner et al. 1999 Molecular Brain Research, in press.

[3] = biological target: T1, estrogen receptor of rat uteri (Rattus norvegicus, UniProt P06211); test: Competitive binding with 3H-estradiol to estrogen receptor preparation of rat uterus cytosol; conditions: for RBA Rat Uterus: Table 2
T1 construct: The preparation of rat uterus cytosol as well as the receptor test with the ER-containing cytosol; from tissue; host or cells: rat uterus cytosol
T1 sequence (P06211 1-600): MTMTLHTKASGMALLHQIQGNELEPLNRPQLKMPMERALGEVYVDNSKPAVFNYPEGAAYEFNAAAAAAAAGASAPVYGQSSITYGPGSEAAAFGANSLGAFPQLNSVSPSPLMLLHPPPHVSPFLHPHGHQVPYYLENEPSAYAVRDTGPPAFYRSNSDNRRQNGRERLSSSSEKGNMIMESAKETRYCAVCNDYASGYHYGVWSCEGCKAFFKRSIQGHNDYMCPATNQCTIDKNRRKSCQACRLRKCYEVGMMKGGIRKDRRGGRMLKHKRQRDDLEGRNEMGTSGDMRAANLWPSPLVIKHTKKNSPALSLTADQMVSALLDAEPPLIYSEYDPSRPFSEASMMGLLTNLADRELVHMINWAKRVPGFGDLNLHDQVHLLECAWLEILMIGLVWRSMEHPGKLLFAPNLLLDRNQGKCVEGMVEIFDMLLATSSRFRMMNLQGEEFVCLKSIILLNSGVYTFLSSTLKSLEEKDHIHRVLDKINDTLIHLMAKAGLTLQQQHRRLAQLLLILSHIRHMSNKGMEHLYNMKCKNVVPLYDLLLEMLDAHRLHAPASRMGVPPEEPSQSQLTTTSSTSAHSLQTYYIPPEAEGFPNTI

[4] = system: hERβ; conditions: estradiol = 100; cited from earlier work
[5] = system: hERβ; test: Relative binding affinity (RBA) to hERβ, cited from Kuiper et al.; design: species or system human; conditions: quotient of RBA hERβ / hERα
Description: In this case, it is assumed that ERβ predominates in the rat prostates over ERα, and ERα predominates in rat uteri over ERβ.

COc1ccc2c(c1)CC[C@]1(C)C2=CC[C@@]2(C)[C@H]1CC[C@@H]2O
melting point: 168 °C

C=C[C@@]12CCc3cc(O)ccc3C1=CC[C@@]1(C)[C@H]2CC[C@@H]1O [A, 8β-Vinyl-estra-1,3,5(10),9(11)-tetraene-3,17β-diol]
RBA Rat Prostate [1]: 83 | binding affinity to estrogen receptor of rat prostates compared with estrogen receptor of rat uteri [1]: higher binding affinity | expression of the serotonin receptor and transporter [2]: increased expression | RBA Rat Uterus [3]: 1

C[C@]12CC[C@@H]3c4ccc(O)cc4CC[C@@]3(C=C(F)F)[C@@H]1CC[C@@H]2O [C, 8β-(2,2-difluorovinyl)-estra-1,3,5(10)-triene-3,17β-diol]
RBA Rat Prostate [1]: 5 | binding affinity to estrogen receptor of rat prostates compared with estrogen receptor of rat uteri [1]: higher binding affinity | expression of the serotonin receptor and transporter [2]: increased expression | RBA Rat Uterus [3]: 0.9

C[C@]12CC[C@@H]3c4ccc(O)cc4CC[C@H]3[C@@H]1C[C@@H](O)[C@@H]2O [Estriol]
hERβ RBA [4]: 21

O=c1c(-c2ccc(O)cc2)coc2cc(O)cc(O)c12 [Genisteine, reference compound]
Rat prost. ER (RBA) [1]: 10

C[C@]12CC[C@@H]3c4ccc(O)cc4CC[C@H]3[C@@H]1CC[C@H]2O [17α-Estradiol, reference compound]
Rat prost. ER (RBA) [1]: 1.3

CC[C@@]12CCc3cc(O)ccc3[C@H]1CC[C@@]1(C)[C@H]2CC[C@@H]1O [E, 8β-ethyl-estra-1,3,5(10)-triene-3,17β-diol]
RBA Rat Prostate [1]: 7 | binding affinity to estrogen receptor of rat prostates compared with estrogen receptor of rat uteri [1]: higher binding affinity | expression of the serotonin receptor and transporter [2]: increased expression | RBA Rat Uterus [3]: <0.3

C=C[C@@]12CCc3cc(O)ccc3[C@H]1CC[C@@]1(C)[C@H]2CC[C@@H]1O [B, 8β-vinyl-estra-1,3,5(10)-triene-3,17β-diol]
RBA Rat Prostate [1]: 63 | binding affinity to estrogen receptor of rat prostates compared with estrogen receptor of rat uteri [1]: higher binding affinity | expression of the serotonin receptor and transporter [2]: increased expression | RBA Rat Uterus [3]: 0.7

C[C@]12CC[C@H]3[C@@H](CC=C4C[C@@H](O)CC[C@@]43C)[C@@H]1CC[C@@H]2O [5-Androstenediol, reference compound]
Rat prost. ER (RBA) [1]: 5 | prost. ER/uterus ER ([1]; ratio of RBA rat prostate ER / rat uterus ER): 50 | ERβ/ERα [5]: 3 | Rat uterus ER (RBA) ([3]; Table 1, estradiol = 100): 0.1 | hERβ RBA [4]: 17

C[C@@]12CCc3cc(O)ccc3[C@H]1CC[C@@]1(C)[C@H]2CC[C@@H]1O [D, 8β-methyl-estra-1,3,5(10)-triene-3,17β-diol]
RBA Rat Prostate [1]: 67 | binding affinity to estrogen receptor of rat prostates compared with estrogen receptor of rat uteri [1]: higher binding affinity | expression of the serotonin receptor and transporter [2]: increased expression | RBA Rat Uterus [3]: 1.3
